Entries after “also recorded” stand apart in the source; their conditions may differ. Blank lines part the entries; values can stand above or below the compound they belong to.
Key:
[1] = Absorbance and fluorescence emission spectra (SpectraMax M2); assay type: physicochemical
Summary of the method: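 Absorbance and emission maxima measured on a SpectraMax M2 spectrophotometer, which also gave quantum yield data; analysis in GraphPrism.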

[2] = Quantum yield measurements versus Acridine Yellow in EtOH; assay type: physicochemical
Summary of the method: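 Fluorescence quantum yield is relative to Acridine Yellow in EtOH (Φ 0.47), with excitation at 460 nm. Integrated emission at 510–700 nm was corrected for absorbance at the excitation wavelength and for solvent refractive index.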

[3] = Effect of solvent viscosity on fluorescence intensity (molecular rotor); assay type: physicochemical; settings: 100 μM, rt, solvents of similar polarity
Procedure: The fluorescence spectra of compound (BDC-9) in different solvents of similar polarities but covering a range of viscosities were analyzed. […] Increased solvent viscosity reduces bond rotation at positions 3 and 5 of the BODIPY core, which, without being bound to theory, minimizes non-radiative energy loss and leads to higher quantum yields (24).

human serum albumin = human serum albumin (Homo sapiens, UniProt P02768); test: In vitro fluorescence screening against 84 biologically relevant analytes / 16 proteins; assay type: binding; settings: 10 μM, 10 mM HEPES pH 7.4, 1% DMSO
Procedure: F0 is the fluorescence intensity of BDC-9 in HEPES buffer. Values are represented as means (n=4).
Amino-triazolyl-BODIPYs (10 μM) were screened in 10 mM HEPES buffer, pH 7.4, containing 1% DMSO. Fluorescence intensities were measured using a SpectraMax M2 platereader in 384-well plates. Excitation was provided at each compound's excitation range, and emission spectrum was obtained starting from at least 30 nm beyond the excitation wavelength. All the analytes were tested at four serial concentrations.
The fluorescent response of BDC, BDCAC and BDCCA was examined against 84 biologically relevant analytes that were categorized into nine different sets (i.e. pH standards, viscous solutions, genetic macromolecules, peptides, metal ions, redox molecules, nucleic acids, proteins and other metabolites).

HSA [4] = molecular target: T1, HSA (Homo sapiens, UniProt P02768); test: Fluorescence response to serial dilutions of HSA; assay type: binding
Procedure: Values are represented as means (n=3).
Mixtures of BDC-9 with HSA were prepared in phosphate buffer (pH 7.3, 1% DMSO) at room temperature and fluorescence measurements were taken after incubation for 2 h unless otherwise stated.

[5] = system: serum albumins from rat (RSA), porcine (PSA), rabbit (RbSA), sheep (SSA) and bovine (BSA); test: Species selectivity: fluorescence response to serum albumins of different species; assay type: binding; settings: 10 μM, albumins 1.2×10^−4 to 4 mg/mL
Procedure: FIGS. 7a and 7b show species selectivity of BDC-9. […] FIG. 7b is a photographic image of BDC-9 (10 μM) mixed with respective albumins. Irradiation with a handheld UV lamp at 365 nm.
The selectivity of BDC-9 towards serum albumins from different species was investigated. Serum albumins represent a family of proteins with a high degree of similarity in their primary sequence across various species (˜75% homology) (34,39,40,62). […] The fluorescence response of BDC-9 was evaluated against serial concentrations of serum albumins from rat (RSA), porcine (PSA), rabbit (RbSA), sheep (SSA) and bovine (BSA).

HSA (fatty-acid free) = HSA (fatty-acid free) (Homo sapiens, UniProt P02768); test: Competition with site-selective HSA-binding drugs; settings: from competition assays
Procedure: HSA (fatty-acid free) (0.34 mg/mL, 5 μM) was preincubated for 2 h in phosphate buffer with different concentrations of the drugs (up to 200 μM) before BDC-9 (10 μM) was added. F is the fluorescence intensity at the indicated drug concentration and F0 is the fluorescence intensity with no drug added; λexc.: 460 nm, λem.: 575 nm; values are represented as means and error bars as standard deviations (n=3).
The binding properties of BDC-9 were studied. HSA consists of at least nine binding sites (34-38), amongst which fatty acid (FA) sites 1, 3 and 4 (Sudlow Site II), 5, 6 and 7 (Sudlow Site I) are known to have affinity for drug compounds (31,39-44). […] To verify specific binding and determine the binding site(s) of BDC-9 in HSA, competition assays using drugs binding to the respective sites (e.g. hemin (FA1 site)(71,72), dansyl-L-norvaline (FA3/4 sites) (73), propofol (FA3/4 and FA5 sites) (35), ibuprofen (FA3/4 and FA6 sites) (74) and warfarin (FA7 site) (74) were performed (75).
There have been several reports of fluorescent dyes binding to FA3/4 (48,49,73), FA6 (51) and FA7 (54,55,76) sites. The present invention represents the first known experimentally proven fluorescent dye binding to the FA1 site (76), in which binding is not dependent on contact with bound lipid (72). BDC-9 is therefore a valuable probe for examining the heme region on HSA.

HSA [6] = molecular target: T1, HSA; test: Determination of dissociation constant with HSA (fluorescence titration, one-site model); settings: HSA 10 μM, one-site specific binding model
Procedure: HSA (10 μM) was titrated against serial concentrations of BDC-9 (0.47 to 60 μM) and the fluorescence intensities were measured at 575 nm (λexc=460 nm). The fluorescence intensity of bound BDC-9 at each concentration was determined using the equation:
[formula] where F and F0 are the fluorescence intensities of a given concentration of BDC-9 with and without HSA respectively. Fsat is the fluorescence intensity at the same concentration of BDC-9 when fully bound.

HSA [7] = molecular target: T1, HSA; test: Quantification of HSA in spiked urine samples; settings: urine spiked with HSA up to 1 mg/mL
Procedure: HSA (0 to 1 mg/mL) was added to 10% urine from healthy individuals in phosphate buffer (pH=7.3). BDC-9 was added at 10 μM concentration; λexc.: 460 nm, λem.: 575 nm; values represented as means (n=3) and error bars as standard deviations; linear regression: R^2=0.998.
In order to examine the selectivity and sensitivity of BDC-9 in complex matrices, BDC-9 was utilized to quantify the amount of HSA in urine samples. Microalbuminuria, which involves an albumin excretion rate of 15 to 40 μg/mL (80, 81), is a well-established cardiovascular risk marker and an indication of liver and renal disease (32,33). The fluorescence response of BDC-9 was analyzed in urine that was spiked with different amounts of HSA, up to 1 mg/mL.

primary neurons [8] = test: Primary brain cell screening platform (neurons, astrocytes, microglia); assay type: cell-based; settings: 500 nM, 1 hour
Excerpt: Esterification to MKAA (and possibly other esters) improves permeability into intact live cells while maintaining staining specificity (FIG. 12). The acetylated MKAA undergoes rapid hydrolysis by cellular esterases after crossing the live cell membrane generates the active MKHA compound responsible for the fluorescence response. FIGS. 13 and 14 show the structures of example MKHA compounds that have been synthesized and tested for primary neuron staining.
For neuron probe discovery, a primary brain cell screening platform was utilized, which involved the use of primary neurons, astrocytes and microglia isolated by differential adhesion methods. These cells were prepared alongside one another in 384-well microplates and incubated in duplicate with 5,000 DOFL compounds at 500 nM concentrations for 1 hour at 4-5 days post-isolation (FIG. 15). […] The compound MKHA374-48 is alternately referred to herein as NeuO (pronounced “neo”) for Neuron Orange.

live neurons = test: Live cell compound staining and immunostaining of mixed primary neural cell cultures; assay type: cell-based, mouse; settings: 500 nM, brain cell preparations from P1-P3 mice
Procedure: Cells were stained with 500 nM of MKHA101-3 (Green) and imaged at 10× magnification before fixing with 4% PFA. They were then permeabilized with 0.1% Triton-X and immunostained with GFAP (Red) and neurons (Green).
Cells were stained with 500 nM of NeuO (Green) and imaged at 10× magnification before fixing with 4% PFA. They were then permeabilized with 0.1% Triton-X and immunostained with β-III-tubulin (Tuji, Yellow), GFAP (Red) and O4).
Using the heterogeneous brain cell preparations from P1-P3 mice, cells that were compound positive were also found to be β-III-tubulin positive (FIG. 17).
Using the heterogeneous brain cell preparations from P1-P3 mice, cells that were compound positive were also found to be β-III-tubulin (Tuji) positive (FIG. 18a). […] NeuO appears to stain all neurons regardless of subtype (FIG. 18b).

[9] = system: mixed primary neural cell populations; test: Flow cytometry analysis and FACS sorting of mixed primary neural cells; assay type: cell-based, mouse
Excerpt: Unstained controls are shown in each spectrum from about 0 to about 1 G.
To further analyze this population of compound positive cells, the two populations (Bright and Dim) were sorted out cell re-culture and RNA extraction for gene analysis.

primary neurons [10] = test: Neuron viability, MTS cell cytotoxicity assay (Promega); assay type: cell-based, mouse; settings: 24 hour incubation, 500 nM or higher
Procedure: Primary neurons were isolated from P1-3 mouse pups by preferential adherence to poly-D-lysine coating. They were left to mature for 5 days before addition of compound at the stipulated concentrations for 24 h. The MTS assay (Promega) was used to assess viability according to manufacturer's instructions.
For long term tracking and downstream functional studies, it is critical that the compound is not cytotoxic towards the cells and that cells remain viable after staining.

neurons = test: Time lapse imaging of in vitro neuronal development; assay type: cell-based, mouse; settings: 500 nM
Excerpt: The survival of the cells and dye signal is critical in time lapse studies to analyze neuronal development and interaction with other neural cells.

T1 sequence (P02768 25-609): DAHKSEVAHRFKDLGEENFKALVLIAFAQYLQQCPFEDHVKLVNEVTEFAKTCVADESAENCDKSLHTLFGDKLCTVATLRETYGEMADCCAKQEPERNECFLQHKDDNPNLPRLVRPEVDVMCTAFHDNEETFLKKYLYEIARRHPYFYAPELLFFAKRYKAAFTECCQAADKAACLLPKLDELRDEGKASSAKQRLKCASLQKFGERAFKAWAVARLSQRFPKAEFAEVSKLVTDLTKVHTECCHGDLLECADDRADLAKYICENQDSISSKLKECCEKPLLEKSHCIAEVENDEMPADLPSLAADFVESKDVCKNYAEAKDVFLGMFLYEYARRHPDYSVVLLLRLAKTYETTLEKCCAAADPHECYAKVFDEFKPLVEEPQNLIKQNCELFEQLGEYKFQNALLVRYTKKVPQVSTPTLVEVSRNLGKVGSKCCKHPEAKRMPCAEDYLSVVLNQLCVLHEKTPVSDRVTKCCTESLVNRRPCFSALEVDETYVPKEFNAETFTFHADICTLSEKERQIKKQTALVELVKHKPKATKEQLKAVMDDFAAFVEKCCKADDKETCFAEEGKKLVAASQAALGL
human serum albumin, sequence (P02768 25-609): as above
HSA (fatty-acid free), sequence (P02768 25-609): as above

λmax Absorp. ([1]; BDC library, Table 2): 472 nm
λmax Emission ([1]; BDC library, Table 2): 581 nm
φ (quantum yield) ([2]; BDC library, Table 2, excitation 460 nm): 0.22%
increase in fluorescence upon binding to HSA (HSA [4]; 10 μM, phosphate buffer, λexc 460 nm): 220 fold
limit of detection of HSA (HSA [4]; S/N=3): 0.3 µg/mL
Kd (HSA [6]): 12.7 ± 0.4 µM
correlation between fluorescence response and amount of HSA in urine (HSA [7]): excellent linear correlation
Structure (SMILES): Nc1ccc(C2=C3C=CC(N4CCCCC4)=[N+]3[B-](F)(F)n3c2ccc3-n2cc(-c3ccccc3)nn2)cc1 [BDC-9, 10-(4-aminophenyl)-5,5-difluoro-7-(4-phenyl-1H-1,2,3-triazol-1-yl)-3-(piperidin-1-yl)-5H-dipyrrolo[1,2-c:2′,1′-f][1,3,2]diazaborinin-4-ium-5-uide]
fluorescence intensity versus solvent viscosity [3]: systematically increased in more viscous alcohols; also recorded: strong correlation between fluorescence intensity and viscosity
selectivity of fluorescence response among proteins and analytes (human serum albumin): remarkable selectivity towards human serum albumin
selectivity towards HSA versus serum albumins from other species [5]: marked selectivity towards HSA with marginal response on the other species
binding site on HSA (HSA (fatty-acid free)): binding to the FA1 site (heme site) of HSA

absorbance λmax ([1]; FIG. 2 normalized spectra): 468 nm
emission λmax ([1]; FIG. 2 normalized spectra): 557 nm
λmax Absorp. (nm) ([1]; MKHA compounds, absorbance maximum): 468 nm
λmax Emission (nm) ([1]; MKHA compounds, fluorescence emission maximum): 557 nm
φ (%) ([2]; MKHA compounds, quantum yield): 0.3684%
Structure (SMILES): CCCc1cn(C2=[N+]3C(=C(c4ccc(NC(=O)CO)cc4)c4ccc(NCc5ccccc5)n4[B-]3(F)F)C=C2)nn1 [MKHA374-48, 7-(benzylamino)-5,5-difluoro-10-(4-(2-hydroxyacetamido)phenyl)-3-(4-propyl-1H-1,2,3-triazol-1-yl)-5H-dipyrrolo[1,2-c:2′,1′-][1,3,2]diazaborinin-4-ium-5-uide]
fluorescence response / selectivity towards primary neurons in screening (primary neurons [8]): superior selectivity towards live neurons compared to the original MKHA101-3
staining specificity for neurons over other neural cells (live neurons): stains the cell bodies and dendrites specifically over other neural cells
flow cytometry profile of stained mixed neural cell populations [9]: neuronal population segregating from the main population
effect on cell viability (primary neurons [10]): did not affect cell viability significantly
time lapse imaging of stained neurons (neurons): Bright NeuO stained neurons can be seen migrating from the interior of the sphere

Source: patent US9513294B2, “Megastokes amino-triazolyl-BODIPY compounds and applications to live neuron staining and human serum albumin FA1 drug site probing” (National University of Singapore, priority 2012, dated 2016)
